{"source": "patent US6818215B2", "about": "“Antibodies to senescent cell-derived inhibiters of DNA synthesis” (priority 1991, dated 2004)", "key": {"[1]": {"test_system": "A31 cells", "assay": "DNA synthesis in transfected (β-galactosidase positive) cells, radiolabeled nuclei", "format": "cell-based, murine", "experimental": "(§1) The effect of the human SDI-1 on transcription driven by two E2F-responsive promoters was determined. Proliferating A31 cells were transfected with an SDI-1 expression vector in which the SDI-1 cDNA was driven by the strong constitutive cytomegalovirus early promoter (CMV) together with a reporter vector in which the chloramphenicol acetyltransferase (CAT) gene was driven by either the hamster dihydrofolate reductase (DHFR) promoter or the human cdc2 promoter (cdc2-CAT). A31 cells are Balb/c murine 3T3 fibroblasts whose origin and growth properties have been described (Lu, K. et al., Molec. Cell. Biol. 9:3411-3417 (1989); Dimri, G. P et al., J. Biol. Chem. 269:16180-16186 (1994), herein incorporated by reference). Cells were transfected with 2 μg of expression vectors, reporters vectors (for transactivation) and the CMV-β-gal identification/normalization vector using Lipofectamine (Gibco-BRL), as described by Dimri, G. P et al. (J. Biol. Chem. 269:16180-16186 (1994), herein incorporated by reference), The vector backbone was added to the mixture as needed to equalize the amount of transfected DNA. Seventy-two hours later, the cells were lysed and assayed for chloramphenicol acetyl transferase (CAT) and β-galactosidase activity. Both DHFR and cdc2 were expressed by proliferating cells, largely due to E2F-mediated transcription that is dependent on E2F binding sites in the 5′ regulatory regions of these genes (Slansky, J. E. et al., Molec. Cell. Biol. 13:1610-1618 (1993); Dalton, S., EMBO J. 11:1797-1804 (1992)).\nThese mutants included a naturally occurring SDI-1 variant (p21pm) in which the serine at amino acid 31 was replaced by an arginine. This polymorphism has been detected in approximately 10% of normal human cells thus far examined, and appears to result in a slight reduction in the antiproliferative properties of SDI-1 (Table 17). A SDI-1 expression vector for this allele (CMV-p21pm) was compared with CMV-SDI-1 for ability to inhibit DNA synthesis and E2F-mediated transactivation in proliferating A31 cells. […]"}, "[2]": {"test_system": "c-fos promoter", "assay": "CAT reporter transcription assay, fos-CAT", "format": "cell-based", "settings": "SDI-1 2.0 μg", "experimental": "as §1\nIn sharp contrast to the response of the DHFR and cdc2 promoters, CMV-SDI-1 had little or no effect on reporter activity driven by either the SV 40 early promoter (SV-CAT or the c-fos promoter (fos-CAT) (Table 16). Neither the SV40 early genes nor c-fos has been reported to be E2F-responsive."}, "[3]": {"test_system": "Human umbilical vein endothelial cells", "assay": "GST-SDI-1 fusion protein, thymidine incorporation", "format": "cell-based", "experimental": "As indicated above, SDI-1 has the capacity to suppress the proliferation of tumor cells. […] In the experiment, 5×10^3 cells were plated overnight at 37° C. (only for adherent cells) and then incubated with the SDI fusion protein. After 48 hours at 37° C., cells were pulsed with thymidine for 24 hours and then harvested. The results of this experiment are shown in Table 8; the thymidine incorporation by untreated cells was expressed as 100%. all determinations were made in quadruplicate."}, "[4]": {"test_system": "neonatal foreskin cell line (CSC303)", "assay": "Transient transfection of SDI-1, inhibition of DNA synthesis", "format": "cell-based, human", "from_the_text": "(§2) This provides further evidence that SDI-1 behaves like the inhibitor previously detected in senescent cells."}, "[5]": {"test_system": "WI38 immortal cell line", "assay": "Transient transfection of SDI-1, inhibition of DNA synthesis", "format": "cell-based, human", "from_the_text": "as §2"}, "[6]": {"test_system": "HeLa cells", "assay": "Transient transfection of SDI-1, inhibition of DNA synthesis", "format": "cell-based, human", "from_the_text": "as §2"}, "[7]": {"biological_target": "T1, cdk2 protein (Homo sapiens, UniProt P24941)", "T1 construct": "host or cells: baculovirus expression system", "assay": "Binding of in vitro translated SDI-1 deletion mutants to purified cdk2, anti-cdk2 immunoprecipitation", "settings": "45 μl translation product, 1 ug cdk2, 4° C.", "experimental": "To determine whether the DNA synthesis inhibition caused by these mutants was occurring through inhibition of cdk kinases, the binding of in vitro translated deletion mutant proteins products with purified cdk2protein was examined. Thus, the various deletion mutants of SDI-1 were translated in reticulocyte lysates (Promega) using pBluescript based plasmids as transcription templates for the T7 RNA polymerase. For in vitro binding, 45 μl of the translation product was added to 500 μl binding buffer (50 mM Tris/HCl, pH 7.5, 120 mM NaCl, 2 mM EDTA, 0.1% NP-40, 1 mM NaF, 0.1 m.M sodium vanidate, 5 μg/ml leupeptin, 5 μg/ml soybean trypsin inhibitor, 5 μg/ml aprotinin) containing 1 ug cdk2 protein purified from a bacculovirus expression system. The mixture was gently rocked for 1 hour at 4° C. and then 7.5 μg anti-cdk2 rabbit polyclonal antibody was added. Mixing was continued for 1 hour at 4° C. The immunocomplex was absorbed by incubation with 40 μl protein G plus A beads for 2 hr. The matrices were then washed three times with 0.5 ml of binding buffer prior to electrophoresis and autoradiography."}}}
{"substance": "SDI-1: senescent cell derived inhibitor of DNA synthesis, 164 amino acid protein, SEQ ID NO:2", "values": [{"measurement": "inhibition (antiproliferative effect)", "setting": "[1]; A31 cells", "value": "65-75%"}, {"measurement": "DNA Synthesis % LN", "setting": "[1]; percentage of transfected cells with radiolabeled nuclei", "value": 17, "unit": "%"}, {"measurement": "DNA Synthesis % Inhibition", "setting": "[1]; proliferating A31 cells", "value": 75, "unit": "%"}, {"measurement": "% Activity", "setting": "[2]", "value": 96, "unit": "%"}, {"measurement": "% Inhibition", "setting": "[2]", "value": 4, "unit": "%"}, {"measurement": "Normalized CAT Activity", "setting": "[2]", "value": 16273, "unit": "counts per minute"}, {"measurement": "Relative Cell (% of Control)", "setting": "[3]; 30 μg/ml", "value": "5 ± 1 % of Control"}, {"measurement": "Relative Cell (% of Control)", "setting": "[3]; 50 μg/ml", "value": "2 ± 1 % of Control"}, {"measurement": "inhibition (DNA synthesis)", "setting": "[4]", "value": "40-50%"}, {"measurement": "inhibition (DNA synthesis)", "setting": "[5]", "value": "40-50%"}, {"measurement": "inhibition (DNA synthesis)", "setting": "[6]", "value": "< 20", "unit": "%"}, {"measurement": "binding to purified cdk2 protein", "setting": "[7]", "value": "bound cdk2 protein efficiently"}]}
